The source made the active and inactive calls. No cut-off for these calls is given here.
Columns and labels:
[1] = target: 5'-AMP-activated protein kinase catalytic subunit alpha-1 (Homo sapiens, UniProt Q13131); assay: Biochemical PRKAA1 assay with 2 mM ATP (Bayer in house)
[2] = target: T1, Serine/threonine-protein kinase BRSK2 (Homo sapiens) (UniProt Q8IWQ3); conditions: Compound concentration 1000.0 nM
T1 sequence (whole entry): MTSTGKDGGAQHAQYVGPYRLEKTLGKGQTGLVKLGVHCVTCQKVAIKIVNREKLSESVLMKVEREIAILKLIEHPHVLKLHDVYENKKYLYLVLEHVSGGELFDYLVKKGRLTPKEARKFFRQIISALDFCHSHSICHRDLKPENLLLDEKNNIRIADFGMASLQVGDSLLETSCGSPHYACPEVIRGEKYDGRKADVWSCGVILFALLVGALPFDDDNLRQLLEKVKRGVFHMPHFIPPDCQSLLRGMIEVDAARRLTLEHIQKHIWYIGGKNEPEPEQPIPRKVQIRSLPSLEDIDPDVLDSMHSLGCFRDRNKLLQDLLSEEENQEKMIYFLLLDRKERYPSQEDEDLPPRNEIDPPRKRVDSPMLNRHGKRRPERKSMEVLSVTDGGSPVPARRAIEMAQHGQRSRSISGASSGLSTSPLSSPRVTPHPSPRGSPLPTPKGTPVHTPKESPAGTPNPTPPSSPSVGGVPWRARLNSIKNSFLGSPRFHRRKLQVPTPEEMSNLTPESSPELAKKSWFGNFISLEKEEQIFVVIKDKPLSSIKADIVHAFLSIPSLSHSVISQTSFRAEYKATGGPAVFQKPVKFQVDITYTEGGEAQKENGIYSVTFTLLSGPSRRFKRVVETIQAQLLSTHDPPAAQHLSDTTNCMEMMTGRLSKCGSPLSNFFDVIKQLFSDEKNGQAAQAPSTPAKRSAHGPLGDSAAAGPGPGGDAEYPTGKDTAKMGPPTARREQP

[3] = target: Tyrosine-protein kinase BTK (Homo sapiens) (UniProt Q06187); conditions: Compound concentration 1000.0 nM
[4] = target: Calcium/calmodulin-dependent protein kinase type II subunit alpha (Homo sapiens) (UniProt Q9UQM7); conditions: Compound concentration 1000.0 nM
[5] = target: Casein kinase I isoform epsilon (Homo sapiens) (UniProt P49674); conditions: Compound concentration 1000.0 nM
[6] = target: Casein kinase I isoform gamma-1 (Homo sapiens) (UniProt Q9HCP0); conditions: Compound concentration 1000.0 nM
[7] = target: Casein kinase II subunit alpha (Homo sapiens) (UniProt P68400); conditions: Compound concentration 1000.0 nM
[8] = target: Tyrosine-protein kinase FRK (Homo sapiens) (UniProt P42685); conditions: Compound concentration 1000.0 nM
[9] = target: Mitogen-activated protein kinase kinase kinase 10 (Homo sapiens) (UniProt Q02779); conditions: Compound concentration 1000.0 nM
[10] = target: Serine/threonine-protein kinase 38 (Homo sapiens) (UniProt Q15208); conditions: Compound concentration 1000.0 nM
[11] = target: T2, Serine/threonine-protein kinase NLK (Homo sapiens) (UniProt Q9UBE8); conditions: Compound concentration 1000.0 nM
T2 sequence (whole entry): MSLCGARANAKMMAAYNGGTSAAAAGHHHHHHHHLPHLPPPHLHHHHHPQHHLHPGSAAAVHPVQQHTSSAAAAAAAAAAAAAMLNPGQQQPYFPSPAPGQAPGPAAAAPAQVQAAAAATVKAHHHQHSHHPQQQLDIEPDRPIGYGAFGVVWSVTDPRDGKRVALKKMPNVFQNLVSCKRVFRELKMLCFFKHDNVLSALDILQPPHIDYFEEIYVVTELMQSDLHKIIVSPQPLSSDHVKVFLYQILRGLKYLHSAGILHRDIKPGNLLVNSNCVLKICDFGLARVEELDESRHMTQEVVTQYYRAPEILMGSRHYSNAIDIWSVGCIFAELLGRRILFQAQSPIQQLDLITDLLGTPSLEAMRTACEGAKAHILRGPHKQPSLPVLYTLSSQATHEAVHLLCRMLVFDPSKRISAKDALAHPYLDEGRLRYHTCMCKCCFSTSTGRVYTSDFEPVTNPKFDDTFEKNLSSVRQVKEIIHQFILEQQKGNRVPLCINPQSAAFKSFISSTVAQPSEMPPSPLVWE

[12] = target: Serine/threonine-protein kinase pim-1 (Homo sapiens) (UniProt P11309); conditions: Compound concentration 1000.0 nM
[13] = target: Ribosomal protein S6 kinase alpha-1 (Homo sapiens, UniProt Q15418); conditions: Compound concentration 1000.0 nM
[14] = target: T3, Tyrosine-protein kinase receptor TYRO3 (Homo sapiens) (UniProt Q06418); conditions: Compound concentration 1000.0 nM
T3 sequence (whole entry): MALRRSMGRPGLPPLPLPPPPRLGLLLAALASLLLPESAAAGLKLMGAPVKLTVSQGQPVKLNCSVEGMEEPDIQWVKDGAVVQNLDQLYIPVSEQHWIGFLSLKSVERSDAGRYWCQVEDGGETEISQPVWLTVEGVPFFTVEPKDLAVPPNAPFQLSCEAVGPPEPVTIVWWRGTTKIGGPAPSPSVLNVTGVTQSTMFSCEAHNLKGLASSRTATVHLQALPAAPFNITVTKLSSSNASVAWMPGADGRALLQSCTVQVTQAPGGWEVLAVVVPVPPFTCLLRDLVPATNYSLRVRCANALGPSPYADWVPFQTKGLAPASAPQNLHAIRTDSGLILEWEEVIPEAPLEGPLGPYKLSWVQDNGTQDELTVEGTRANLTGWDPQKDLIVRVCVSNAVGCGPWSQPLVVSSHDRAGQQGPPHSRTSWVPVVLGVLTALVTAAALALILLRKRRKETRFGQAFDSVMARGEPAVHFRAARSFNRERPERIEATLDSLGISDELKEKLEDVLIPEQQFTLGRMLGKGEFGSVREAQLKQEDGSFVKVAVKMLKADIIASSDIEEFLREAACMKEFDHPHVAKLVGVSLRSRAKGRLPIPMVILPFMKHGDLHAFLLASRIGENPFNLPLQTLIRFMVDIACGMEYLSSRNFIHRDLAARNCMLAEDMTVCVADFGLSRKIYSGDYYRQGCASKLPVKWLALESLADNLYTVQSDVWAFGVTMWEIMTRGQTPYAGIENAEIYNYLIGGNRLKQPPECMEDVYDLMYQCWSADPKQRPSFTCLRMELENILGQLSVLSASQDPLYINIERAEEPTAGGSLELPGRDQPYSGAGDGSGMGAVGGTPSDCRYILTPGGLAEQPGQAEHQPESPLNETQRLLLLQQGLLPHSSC

[15] = target: Wee1-like protein kinase 2 (Homo sapiens) (UniProt P0C1S8); conditions: Compound concentration 1000.0 nM
[16] = target: D(3) dopamine receptor (Homo sapiens) (UniProt P35462); conditions: Compound concentration 10.0 uM

Sequence of Serine/threonine-protein kinase pim-1 (Homo sapiens) (P11309 whole entry, looked up): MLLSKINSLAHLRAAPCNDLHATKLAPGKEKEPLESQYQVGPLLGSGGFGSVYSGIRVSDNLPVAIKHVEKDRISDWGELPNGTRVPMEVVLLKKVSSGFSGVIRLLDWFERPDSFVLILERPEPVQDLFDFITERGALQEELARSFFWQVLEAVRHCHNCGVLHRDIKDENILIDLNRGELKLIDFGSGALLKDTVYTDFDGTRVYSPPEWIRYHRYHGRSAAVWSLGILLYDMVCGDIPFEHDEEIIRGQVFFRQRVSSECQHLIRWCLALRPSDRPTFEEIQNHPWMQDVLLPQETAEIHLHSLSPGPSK
Sequence of Wee1-like protein kinase 2 (Homo sapiens) (P0C1S8 whole entry, looked up): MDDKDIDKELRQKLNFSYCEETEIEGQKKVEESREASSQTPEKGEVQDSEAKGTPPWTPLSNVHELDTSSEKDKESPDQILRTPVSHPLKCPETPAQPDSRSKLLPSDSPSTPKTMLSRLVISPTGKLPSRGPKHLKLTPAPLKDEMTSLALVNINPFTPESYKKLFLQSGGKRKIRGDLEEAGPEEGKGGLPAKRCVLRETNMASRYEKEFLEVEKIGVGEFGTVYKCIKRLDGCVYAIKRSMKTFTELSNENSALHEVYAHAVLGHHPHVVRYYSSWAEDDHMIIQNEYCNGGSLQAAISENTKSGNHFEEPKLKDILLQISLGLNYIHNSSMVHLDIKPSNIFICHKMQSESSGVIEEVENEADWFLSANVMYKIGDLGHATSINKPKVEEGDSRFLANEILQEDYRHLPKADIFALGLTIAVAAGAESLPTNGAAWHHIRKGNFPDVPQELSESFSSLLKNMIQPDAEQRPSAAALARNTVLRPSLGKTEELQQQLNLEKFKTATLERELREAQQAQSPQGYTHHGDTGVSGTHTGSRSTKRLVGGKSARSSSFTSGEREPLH
Sequence of Tyrosine-protein kinase BTK (Homo sapiens) (Q06187 whole entry): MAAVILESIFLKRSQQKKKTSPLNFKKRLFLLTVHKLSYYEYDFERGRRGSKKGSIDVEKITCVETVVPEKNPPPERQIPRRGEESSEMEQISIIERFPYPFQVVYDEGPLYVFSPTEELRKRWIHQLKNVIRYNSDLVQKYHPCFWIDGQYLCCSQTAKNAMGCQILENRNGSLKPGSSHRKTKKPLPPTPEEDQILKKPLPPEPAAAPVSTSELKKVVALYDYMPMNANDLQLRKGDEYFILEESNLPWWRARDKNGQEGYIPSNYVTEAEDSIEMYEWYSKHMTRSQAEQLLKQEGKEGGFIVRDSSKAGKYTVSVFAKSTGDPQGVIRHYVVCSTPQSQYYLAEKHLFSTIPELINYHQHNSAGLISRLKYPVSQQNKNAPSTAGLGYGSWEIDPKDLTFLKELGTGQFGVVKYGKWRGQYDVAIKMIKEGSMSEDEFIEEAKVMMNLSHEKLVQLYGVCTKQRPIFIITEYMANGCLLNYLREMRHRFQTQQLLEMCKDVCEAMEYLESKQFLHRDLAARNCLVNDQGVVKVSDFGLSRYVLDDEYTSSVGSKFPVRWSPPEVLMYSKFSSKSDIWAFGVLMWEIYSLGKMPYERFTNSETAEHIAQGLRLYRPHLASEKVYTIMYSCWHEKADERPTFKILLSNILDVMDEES
Sequence of 5'-AMP-activated protein kinase catalytic subunit alpha-1 (Q13131 whole entry): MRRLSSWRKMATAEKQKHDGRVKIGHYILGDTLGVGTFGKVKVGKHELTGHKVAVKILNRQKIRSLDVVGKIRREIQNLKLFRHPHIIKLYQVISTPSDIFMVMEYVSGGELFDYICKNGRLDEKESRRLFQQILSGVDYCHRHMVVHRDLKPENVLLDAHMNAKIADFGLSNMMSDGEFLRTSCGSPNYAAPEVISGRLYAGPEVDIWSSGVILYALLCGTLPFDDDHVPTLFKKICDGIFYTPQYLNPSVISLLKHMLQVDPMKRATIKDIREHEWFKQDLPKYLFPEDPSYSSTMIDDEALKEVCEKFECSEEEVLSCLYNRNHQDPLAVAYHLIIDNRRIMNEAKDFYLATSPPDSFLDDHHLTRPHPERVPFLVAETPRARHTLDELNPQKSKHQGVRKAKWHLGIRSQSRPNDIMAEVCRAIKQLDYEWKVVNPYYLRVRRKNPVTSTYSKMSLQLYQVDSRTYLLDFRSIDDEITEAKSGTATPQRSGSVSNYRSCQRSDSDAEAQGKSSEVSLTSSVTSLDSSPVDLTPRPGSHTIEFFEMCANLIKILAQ
Sequence of Mitogen-activated protein kinase kinase kinase 10 (Homo sapiens) (Q02779 whole entry, looked up): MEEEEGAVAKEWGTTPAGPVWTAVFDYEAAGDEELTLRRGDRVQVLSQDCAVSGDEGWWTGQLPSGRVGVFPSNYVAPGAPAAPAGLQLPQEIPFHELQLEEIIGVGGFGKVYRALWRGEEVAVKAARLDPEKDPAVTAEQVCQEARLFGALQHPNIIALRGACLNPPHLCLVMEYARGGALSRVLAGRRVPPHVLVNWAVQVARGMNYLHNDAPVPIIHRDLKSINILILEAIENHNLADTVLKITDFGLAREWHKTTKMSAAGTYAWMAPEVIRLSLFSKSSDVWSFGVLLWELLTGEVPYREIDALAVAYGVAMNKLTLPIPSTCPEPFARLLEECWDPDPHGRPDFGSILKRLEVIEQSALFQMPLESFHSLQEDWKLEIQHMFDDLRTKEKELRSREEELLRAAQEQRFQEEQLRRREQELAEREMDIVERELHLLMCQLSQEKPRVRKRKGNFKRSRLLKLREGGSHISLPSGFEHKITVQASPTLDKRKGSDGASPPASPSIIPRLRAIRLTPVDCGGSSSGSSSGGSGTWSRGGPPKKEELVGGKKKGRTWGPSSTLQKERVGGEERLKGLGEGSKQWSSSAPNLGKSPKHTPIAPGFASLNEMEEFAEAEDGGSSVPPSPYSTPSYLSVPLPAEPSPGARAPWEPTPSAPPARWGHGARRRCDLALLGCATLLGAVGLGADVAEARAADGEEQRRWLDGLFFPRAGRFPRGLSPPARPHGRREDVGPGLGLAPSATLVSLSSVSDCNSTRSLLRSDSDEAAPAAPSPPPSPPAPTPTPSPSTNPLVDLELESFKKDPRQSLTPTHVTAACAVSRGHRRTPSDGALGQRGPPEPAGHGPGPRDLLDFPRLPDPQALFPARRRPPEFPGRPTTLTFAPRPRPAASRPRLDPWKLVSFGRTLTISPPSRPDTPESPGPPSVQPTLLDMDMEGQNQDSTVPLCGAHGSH
Sequence of Serine/threonine-protein kinase 38 (Homo sapiens) (Q15208 2-465 limits assumed): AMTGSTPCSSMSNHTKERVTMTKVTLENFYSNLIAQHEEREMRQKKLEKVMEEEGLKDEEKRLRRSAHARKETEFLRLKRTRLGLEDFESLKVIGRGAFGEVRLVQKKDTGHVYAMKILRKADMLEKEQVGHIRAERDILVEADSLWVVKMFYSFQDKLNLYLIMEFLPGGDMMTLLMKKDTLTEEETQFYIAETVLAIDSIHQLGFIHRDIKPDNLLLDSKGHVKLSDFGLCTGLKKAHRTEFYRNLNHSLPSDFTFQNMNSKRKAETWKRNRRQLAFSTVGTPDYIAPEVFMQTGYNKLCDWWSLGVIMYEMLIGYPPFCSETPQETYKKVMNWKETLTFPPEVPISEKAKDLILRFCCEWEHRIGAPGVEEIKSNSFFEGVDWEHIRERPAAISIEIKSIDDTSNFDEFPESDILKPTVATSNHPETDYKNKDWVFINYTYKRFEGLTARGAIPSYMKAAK
Sequence of Ribosomal protein S6 kinase alpha-1 (Q15418 whole entry): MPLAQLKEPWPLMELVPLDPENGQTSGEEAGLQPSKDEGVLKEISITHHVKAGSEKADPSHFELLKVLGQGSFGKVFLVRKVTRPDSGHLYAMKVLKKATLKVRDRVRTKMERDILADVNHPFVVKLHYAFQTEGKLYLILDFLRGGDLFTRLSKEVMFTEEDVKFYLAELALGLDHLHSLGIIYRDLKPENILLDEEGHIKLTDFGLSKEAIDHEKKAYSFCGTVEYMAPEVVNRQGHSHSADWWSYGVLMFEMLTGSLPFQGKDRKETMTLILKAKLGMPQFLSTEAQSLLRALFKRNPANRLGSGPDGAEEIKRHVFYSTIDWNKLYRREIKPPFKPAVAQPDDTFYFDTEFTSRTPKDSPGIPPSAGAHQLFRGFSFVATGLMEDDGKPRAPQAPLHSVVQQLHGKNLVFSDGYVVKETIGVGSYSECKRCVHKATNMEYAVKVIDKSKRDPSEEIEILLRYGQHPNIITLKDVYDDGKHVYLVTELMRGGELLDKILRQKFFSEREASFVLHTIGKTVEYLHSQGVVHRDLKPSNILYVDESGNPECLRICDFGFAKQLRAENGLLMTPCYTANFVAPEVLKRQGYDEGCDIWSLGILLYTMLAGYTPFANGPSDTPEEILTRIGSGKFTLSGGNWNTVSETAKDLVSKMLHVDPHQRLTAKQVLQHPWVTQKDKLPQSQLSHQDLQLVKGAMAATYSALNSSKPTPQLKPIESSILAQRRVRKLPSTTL
Sequence of Calcium/calmodulin-dependent protein kinase type II subunit alpha (Homo sapiens) (Q9UQM7 whole entry, canonical isoform): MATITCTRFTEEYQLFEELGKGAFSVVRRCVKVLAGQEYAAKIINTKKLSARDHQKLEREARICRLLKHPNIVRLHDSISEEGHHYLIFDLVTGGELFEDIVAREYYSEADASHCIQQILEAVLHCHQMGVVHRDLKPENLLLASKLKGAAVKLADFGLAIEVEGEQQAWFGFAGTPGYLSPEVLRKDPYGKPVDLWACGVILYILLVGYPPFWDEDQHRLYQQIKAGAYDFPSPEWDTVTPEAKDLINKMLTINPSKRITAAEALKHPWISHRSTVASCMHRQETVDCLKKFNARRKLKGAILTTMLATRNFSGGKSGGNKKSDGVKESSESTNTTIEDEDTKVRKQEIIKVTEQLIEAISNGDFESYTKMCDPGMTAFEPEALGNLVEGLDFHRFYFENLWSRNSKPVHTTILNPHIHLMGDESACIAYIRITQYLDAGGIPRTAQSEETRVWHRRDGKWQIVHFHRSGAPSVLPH

| SMILES | IC50 [1] | residual activity [2] [%] | residual activity [3] [%] | residual activity [4] [%] | residual activity [5] [%] | residual activity [6] [%] | residual activity [7] [%] | residual activity [8] [%] | residual activity [9] [%] | residual activity [10] [%] | residual activity [11] [%] | residual activity [12] [%] | residual activity [13] [%] | residual activity [14] [%] | residual activity [15] [%] | inhibition [16] [%] |
| --- | --- | --- | --- | --- | --- | --- | --- | --- | --- | --- | --- | --- | --- | --- | --- | --- |
| CC1=C(C#N)C(c2ccc3c(c2)c(NC(=O)c2ccccc2C)nn3C)C(C#N)=C(C)N1 [BAY-974] | > 20 µM (not active) | 92 | 85 | 90 | 100 | 100 | 63 | 100 | 69 | 96 | 100 | 100 | 100 | 100 | 100 | 2.48 |
| CCc1ccccc1C(=O)Nc1n[nH]c2c(C)c(F)c(C3C(C#N)=C(C)N(C)C(C)=C3C#N)cc12 [BAY-3827] | 0.015 µM (active) | 36 | 99 | 47 | 100 | 95 | 100 | 100 | 100 | 100 | 100 | 100 | 1.8 | 100 | 82 | 10.4 |
